Assay results published in US10709724B2, “Methods of treating mitochondrial dysfunction” (Ecole Polytechnique Federale de Lausanne (EPFL), priority 2011, dated 2020).
Where “and” joins values, the source holds several entries; their conditions need not be identical. Identical values can stand only once. Entries after “also recorded” stand apart in the source; their conditions may differ.

What was measured:
C. elegans [1] = test: Worm respiration assay (Seahorse XF24); type: in vivo; conditions: day 3 adult worms
Method: Worm Respiration Assays Oxygen consumption was measured using the Seahorse XF24 equipment (Seahorse Bioscience Inc., North Billerica, Mass.) as described in Yamamoto et al. Typically, 200 animals per conditions were recovered from NGM plates with M9 medium, washed three times in 2 mLM9 to eliminate residual bacteria, and resuspended in 500 μL M9 medium. Worms were transferred in 24-well standard Seahorse plates (#100777-004) (50 worms per well) and oxygen consumption was measured 6 times. Respiration rates were normalized to the number of worms in each individual well. NAD measurement by HPLC For NAD+ quantification, approximately 1000 worms were collected in M9 buffer, washed five times to remove residual bacteria and flash-frozen in liquid nitrogen and stored at −80° C. until analysis. Extraction was started by adding 250 μl of 1.6M perchloric acid on frozen samples, followed by extensive homogenization in a Qiagen tissuelyser, and centrifugation at 20.000 g for 15 min. The supernatant was recovered and neutralized with a 3M potassium carbonate solution. After centrifugation, 100 μl of supernatant was filtered and used for NAD measurement using an HPLC system (Agilent) with a Supelco LC-18-T column (Sigma), as described in Yoshino et al. (Yoshino, K. F. Mills, M. J. Yoon, S. Imai, Nicotinamide Mononucleotide, a Key NAD(+) Intermediate, Treats the Pathophysiology of Diet- and Age-Induced Diabetes in Mice. Cell Metab 14, 528 (2011)).

C. elegans [2] = test: Confocal microscopy of mitochondria in body wall muscle (pmyo-3::mito::GFP reporter); conditions: in vivo
Method: Confocal Microscopy and Image Processing Worms were immobilized with 6 mM solution of tetramisole hydrochloride (Sigma, Buchs, Switzerland) in M9 and mounted on 6% agarose pads on glass slides. Images of worms were acquired using Zeiss LSM 700 Upright confocal microscope (Carl Zeiss AG, Oberkochen, Germany) under non-saturating exposure conditions. All the snapshots were taken from the same part of C. elegans: muscles from the upper part of the worm, excluding the regions of oesophagus and vulva. For each condition multiple worms were observed and imaged. Image processing was performed with the Fiji software. One of the critical issues during the imaging process was the position of the worm, as it influences the level of background. For the uniformity of the represented images, contrast and brightness were adjusted in order, to eliminate the undesirable background signal. Neither of these manipulations was affecting the mitochondrial shape. Tracing of the mitochondrial network contour was done by the use of Gaussian blur filter followed by the application of Laplacian operator.

C. elegans [3] = test: Worm lifespan analysis; type: in vivo; conditions: for variation compared to control (%): vs N2 + water
Method: Worm Lifespan Analysis Lifespan tests were performed as described in Mouchiroud et al (L. Mouchiroud et al., Pyruvate imbalance mediates metabolic reprogramming and mimics lifespan extension by dietary restriction in Caenorhabditis elegans. Aging Cell 10, 39 (2011)). Briefly, 60-100 animals were used per conditions and scored every other day. All lifespan experiments were performed at 20° C. […] Animals were exposed to compounds during the full life from eggs until death. To ensure a permanent exposure to the compound, plates were changed twice a week. All the compounds used in this study were dissolved in a water stock solution.

C. elegans [4] = test: Worm fluorescence analysis (endogenous gut fluorescence/lipofuscin, sod-3::GFP); conditions: in vivo
Method: Fluorescence Analysis Quantification of GFP expression and endogenous gut fluorescence were carried out according to the protocol as described in Yamamoto et al. (Yamamoto et al., NCoR1 is a conserved physiological modulator of muscle mass and oxidative function. Cell 147, 827 (2011)). Briefly, GFP was monitored in day 1 or day 3 adults. Fluorimetric assays were performed using a Victor X4 multilabel plate reader (Perkin-Elmer Life Science). Eighty worms were picked at random (20 worms per well of a black-walled 96-well plate) and each well was read four times and averaged. Each experiment was repeated at least three times. Endogenous gut fluorescence was monitored at day 1, day 4 and day 8 by following the same protocol as described before.

C. elegans [5] = test: MitoSox staining of worms (mitochondrial superoxide); type: in vivo; conditions: day 3
Method: Briefly, a population of 100 worms was recovered in 1 ml of M9 buffer, washed three times to remove residual bacteria, and resuspended in 200 μl of 1:200 MitoSox stock solution (initial stock solution was dissolved at 1 mM in DMSO). After 20 minutes of treatment, worms were washed five times in 1 ml of M9 buffer to eliminate the MitoSox reagent, and then transferred in a black-walled 96-well plate for reading. Fluorescence produced by the Mitosox reaction was measured as described before.

C. elegans [6] = test: Quantitative RT-PCR in worms; type: in vivo
Method: mRNA and mtDNA Analysis. Total RNA was prepared using TRIzol (Invitrogen) according to the manufacturer's instructions. RNA was treated with DNase, and 2 μg of RNA was used for reverse transcription (RT). cDNA was purified on QIAquick PCR cleanup columns (Qiagen, Valencia, Calif., USA). 50× diluted cDNA was used for RT-quantitative PCR (RT-VCR) VCR) reactions (Bai et al., 2007). The RT-qPCR reactions were performed using the Light-Cycler system (Roche Applied Science) and a qPCR Supermix (Qiagen) with the primers for mice summarized in Table 1 and 4, and with the primers for worms summarized on Table 7. mtDNA quantification was performed as described (Lagouge et al., 2006) with the primers indicated in Table 2 and 5.

`O=C(c1cc(Cc2n[nH]c(=O)c3ccccc23)ccc1F)N1CCN(C(=O)C2CC2)CC1` [AZD2281] was tested, and the “oxygen consumption (respiration)” value (C. elegans [1]) was “robustly increased respiration; also recorded: Oxygen consumption was increased”, the “mitochondrial content in body wall muscle” value (C. elegans [2]) was “more dense mitochondrial network” and the lifespan extension (C. elegans [3]; 100 nM (FIG. 34B)) was 22.9%. The “mean lifespan ± SE” value (C. elegans [3]; N2, 100 nM, listed as AZD) was 22.8 ± 0.9 days and 24.7 ± 0.669 days and 26.5 ± 0.77 days and 24.5 ± 0.94 days and 24.7 ± 0.55 days, the “mean lifespan ± SE” value (C. elegans [3]; N2, 500 nM) was 22.2 ± 1.15 days and the “variation compared to control (%)” value (C. elegans [3]; N2, 500 nM) was “+14.4%”. The “mean lifespan ± SE” value (C. elegans [3]; N2, 1000 nM) was 21.2 ± 0.96 days, the “variation compared to control (%)” value (C. elegans [3]; N2, 1000 nM) was “+9.2%” and the “lifespan in daf-16 mutant worms” value (C. elegans [3]; daf-16(mu86) mutant worms) was “failed to increase lifespan; also recorded: fails to extend lifespan”. For the same molecule, the “mean lifespan ± SE” value (C. elegans [3]; daf-16(mu86), 100 nM) was 18.2 ± 0.76 days, the “variation compared to control (%)” value (C. elegans [3]; daf-16(mu86), 100 nM) was −16.1% and the “mean lifespan ± SE” value (C. elegans [3]; pme-1(ok988), 100 nM) was 26.1 ± 0.78 days. The “variation compared to control (%)” value (C. elegans [3]; pme-1(ok988), 100 nM) was “+31.2%”, the “lifespan of the pme-1 mutant” value (C. elegans [3]; pme-1 mutant worms) was “not further extended; also recorded: pme-1-dependent manner” and the “lifespan in sir-2.1(ok434) mutant / sir-2.1 dependence” value (C. elegans [3]; sir-2.1(ok434) mutant worms) was “lost the AZD2281-induced longevity; also recorded: does not extend lifespan”. For the same molecule, the “mean lifespan ± SE” value (C. elegans [3]; sir-2.1(ok434), 100 nM) was 21.9 ± 0.528 days, the “variation compared to control (%)” value (C. elegans [3]; sir-2.1(ok434), 100 nM) was “+6.7%” and the “accumulation of the aging pigment lipofuscin” value (C. elegans [4]) was “reduced lipofuscin accumulation; also recorded: decreased the accumulation of the aging pigment lipofuscin”. For the same molecule, the “sod-3::GFP” value (C. elegans [4]) was “increase in sod-3::GFP”, the “ROS production (mitoSOX)” value (C. elegans [5]) was “ROS production was decreased” and the “expression of genes of mitochondrial oxidative metabolism (cts-1, cox-4)” value (C. elegans [6]; day 3 of adulthood) was “increased expression of citrate synthase (cts-1) and cytochrome c oxidase subunit 4 (cox-4); also recorded: increased expression of genes involved in mitochondrial oxidative metabolism”. The daf-16 expression (C. elegans [6]; in vivo) was “did not change expression of daf-16” and the sod-3 expression (C. elegans [6]; in vivo) was “marked induction”.
